# In patent US9333202B2, “Non-retinoid antagonists for treatment of age-related macular degeneration and stargardt disease” (THE TRUSTEES OF COLUMBIA UNIVERSITY IN THE CITY OF NEW YORK, priority 2012, dated 2016):
# Entries after “also recorded” stand apart in the source; their conditions may differ.
# Tests used:
# serum RBP4 = assay: Serum RBP4 measurement (ELISA) in mice after oral dosing; assay type: in vivo, mouse
# Method: The Abca4−/− mouse model manifests accelerated accumulation of lipofuscin in the RPE and is considered a pre-clinical efficacy model for a drug reducing lipofuscin accumulation.
# (§1) Ten week-old Abca4 null mutant mice (129/SV×C57BL/6J) bred as previously described were used in the study. Abca4−/− (knockout) and Abca4+/+(wild-type) mice were raised under 12 h on-off cyclic lighting with an in-cage illuminance of 30-50 lux. For long-term oral dosing A1120 was formulated into Purina 5035 rodent chow at Research Diets, Inc. (New Brunswick, N.J.) to ensure consistent 30 mg/kg daily oral dosing. Animals were administered the A1120-containing chow for 6 weeks.
# Blood samples were collected from a tail vein at days 0, 21 and 42 of the A1120 dosing. Whole blood was drawn into a centrifuge tube and was let clot at room temperature for 30 min followed by centrifugation at 2,000×g for 15 minutes at +4° C. to collect serum. Serum RBP4 was measured using the RBP4 (mouse/rat) dual ELISA kit (Enzo Life Sciences) following the manufacturer's instructions.
# (§2) Blood samples collected from the treatment and control groups at baseline, Day 21 and Day 42 were used to measure serum RBP4 in order to correlate RBP4 levels with reduction in formation of lipofuscin bisretinoids. […] Levels of lipofuscin fluorophores (A2E, A2-DHP-PE and all-trans-retinal dimer-PE) were determined at the end of the 42-day treatment period using quantitative HPLC.
# ERG b-wave = ERG b-wave after photobleaching; settings: in vivo
# [1] = Observation of toxicity signs during 6 week chronic dosing; assay type: in vivo; settings: 6 week-long chronic dosing, 30 mg/kg daily oral
# Method: as §1
# as §2, with “To determine whether A1120 has an effect on retinal production of lipofuscin fluorophores we administered the compound at the daily 30 mg/kg dose to Abca4−/− mice for a period of 6 weeks. Blood” for “Blood”
# Administration of A1120 reduces the production of A2E, A2-DHP-PE, and atRAL di-PE in A1120-treated Abca4−/− mice in comparison to the vehicle-treated Abca4−/− animals by approximately 50%.
# insulin sensitivity = settings: mouse diabetes models; cited from earlier work
# RBP4-TTR interaction [2] = molecular target: T1, RBP4-TTR interaction (Homo sapiens, UniProt P02753); assay: TR-FRET (HTRF) assay for antagonists of retinol-induced RBP4-TTR interaction, agonist and antagonist mode (Example 2); assay type: biochemical; set-up: made in house; host or cells: E. coli; settings: agonist mode, dose titration
# Excerpt: TR-FRET (Time-Resolved Fluorescence Resonance Energy Transfer) is an assay format that can be used in characterization of compounds affecting protein-protein interactions (31-33). […] In the presence of retinol, RBP4-TTR interaction induces FRET that can be registered as increased ratio of […] fluorescence signals. Binding of a desired RBP4 antagonist displaces retinol and induces hindrance for RBP4-TTR interaction resulting in the decreased FRET signal (FIG. 7).
# The assay was developed using E. coli-expressed MBP-tagged RBP4 and commercially available TTR labeled directly with Eu3+ cryptate. In addition to MBP-RBP4 and Eu3+ (K)-TTR, a detector reagent anti-MBP-d2 was present in the mix. The assay was first optimized in the agonist mode; sensitivity and dynamic range of the assay was […] in respect to RBP4, TTR and detection reagent concentrations.
# RBP4-TTR interaction [3] = molecular target: T1, RBP4-TTR interaction; assay: HTRF/TR-FRET assay for retinol-dependent RBP4-TTR interaction (1 μM retinol); assay type: biochemical; set-up: human RBP4 fragment (amino acids 19-201) was expressed in the Gold(DE3)pLysS E. coli strain; made in house; host or cells: E. coli Gold(DE3)pLysS (Stratagene), pMAL-c4x vector
# Excerpt: Bacterially expressed MBP-RBP4 and untagged TTR were used in this assay. For the use in the TR-FRET assay the maltose binding protein (MBP)-tagged human RBP4 fragment (amino acids 19-201) was expressed in the Gold(DE3)pLysS E. coli strain (Stratagene) using the […] vector. Following cell lysis, recombinant RBP4 was purified from the soluble fraction using the ACTA FPLC system (GE Healthcare) equipped with the 5-ml the MBP Trap HP column. Human untagged TTR was purchased from Calbiochem. Untagged TTR was labeled directly with Eu^3+ Cryptate-NHS using the HTRF Cryptate Labeling kit from CisBio following the manufacturer's recommendations. HTRF assay was performed in white low volume 384 well plates (Greiner-Bio) in a final assay volume of 16 μl per well. The reaction buffer contained 10 mM Tris-HCl pH 7.5, 1 mM DTT, 0.05% NP-40, 0.05% Prionex, 6% glycerol, and 400 mM KF. Each reaction contained 60 nM MBP-RBP4 and 2 nM TTR-Eu along with 26.7 nM of anti-MBP antibody conjugated with d2 (Cisbio). Titration of test compounds in this assay was conducted in the presence of 1 μM retinol. All reactions were assembled in the dark under dim red light and incubated overnight at +4° C. wrapped in aluminum foil. TR-FRET signal was measured in the SpectraMax M5e Multimode Plate Reader (Molecular Device). Fluorescence was excited at 337 nm and two readings per well were taken: Reading 1 for time-gated energy transfer from Eu(K) to d2 (337 nm excitation, 668 nm emission, counting delay 75 microseconds, counting window 100 microseconds) and Reading 2 for Eu(K) time-gated fluorescence (337 nm excitation, 620 nm emission, counting delay 400 microseconds, counting window 400 microseconds). The TR-FRET signal was expressed as the ratio of fluorescence intensity: Flu665/Flu620×10,000.
# [4] = Abca4−/− mice, 30 mg/kg daily oral in chow
compound,measurement,setting,value
"O=C(O)c1ccccc1NC(=O)N1CCC(c2ccccc2C(F)(F)F)CC1 [Compound 1, 2(4-(2-(trifluoromethyl)phenyl)piperidine-1-carboxamido)benzoic acid]",Serum RBP4 reduction at Week 3 / Day 21 compared with Day 0,serum RBP4; [4],64%
same,Serum RBP4 reduction at Week 6 / Day 42 compared with Day 0,serum RBP4; [4],75%
same,Effect on serum RBP4 levels (in words),"serum RBP4; mouse, in vivo",reduce serum REBP4 levels
same,Reduction in the serum RBP4 level,"serum RBP4; orally dosed for 3 weeks at 30 mg/kg, treated animals (Example 3)",~70%
same,Effect on ERG b-wave after photobleaching,ERG b-wave,does not reduce ERG b-wave after photobleaching
same,Signs of compound toxicity such as weight loss or reduction in food consumption,[1],did not note any obvious signs of compound toxicity
same,Effect on insulin sensitivity,insulin sensitivity,did not improve insulin sensitivity
same,Induction of RBP4-TTR interaction,RBP4-TTR interaction [2],did not induce RBP4-TTR interaction
same,Antagonism of RBP4-TTR interaction in vitro (in words),RBP4-TTR interaction [3],antagonize retinol-dependent RBP4-TTR interaction; also recorded: disrupt retinol-induced RBP4-TTR interaction; also recorded: antagonize RBP4-TTR interaction in vitro at biologically significant concentrations
